Laboratory results as given in patent US20180153886A1, “USE OF TR[…] PREPARATION OF DRUGS FOR PREVENTING AND TREATING LIVER DISEASES” (priority 2015, published 2018).

Experiments:
liver failure patients [1] = assay: Single-center cohort clinical trial, trimetazidine (TMZ) vs DCA control, liver function indicators ALT/AST; format: in vivo, human; conditions: after 5 days of treatment, FIG. 2
Excerpt: Evaluate if trimetazidine is capable of improving the liver function of patients with hepatic failure.
The single-center cohort study was adopted as the clinical trial method.
In accordance with relevant references and the results of previous trails, the number of cases shall be no less than 50. Taking into account the number of loss to follow up and possible drop-out (to be controlled around 10%), 60 cases are required to be selected (30 cases for the trial group and 30 cases for the control group).
All serious hepatitis patients enrolled between Aug. 19, 2014 and […] were put in the control group; and all those enrolled between December 9 and the application date were in the trial group.
2. Exclusion Criteria • Patients under 18 or over 70 years old; • patients diagnosed with shock liver (ischemic liver disease); • patients with liver failure in pregnance or HELLP syndrome; • patients with liver failure secondary to malignant tumor in the liver; • patients with refractory hypotension • patients with septic shock; • patients about to receive liver transplant (within 8 hours); • patients allergic to trimetazidine drug; • patients […] of trimetazidine drug; • abuser of drugs and/or alcohol; • pregnant or lactation women; • patients with recent myocardial infarct (within half a year); • patients with serious renal inadequacy.
2. Control group: Diisopropylamine Dichloroacetate (DCA) (80 mg/D) for the control group in this trial, provided by Dandong Yichuang Pharmaceutical Co., Ltd, for a 4-week course of treatment.
3. […] HBV-related liver failure patients were also treated with lamivudine.
1. Alanine aminotransferase (ALT), tested by chromatometry, with products provided by Roche Diagnostics (Shanghai) Ltd.
2. Aspartate transaminase (AST), tested by chromatometry, with products provided by Roche Diagnostics (Shanghai) Ltd.

[2] = test system: patients with liver failure / serious hepatitis; assay: Clinical cases: individual patients given oral TMZ on top of combined treatment; format: in vivo, human
Excerpt: Case 1: The patient had past positive HBsAg for over 20 years, during which they took multiple reexaminations of liver function and, as the results of all color ultrasound examinations were within normal range, they were not given any special treatment. Three months before, after catching cold and overwork, they developed abdominal distension and yellow urine, and was admitted to hospital following aggravation of the condition over 6 days. On admission, they were complicated with massive seroperitoneum and serious xanthochromia throughout the skin and mucosa of their whole body, feeling serious nausea, anorexia and feebleness.
Case 2: had had yellow urine for 25 days and dry mouth and bitter taste in mouth for 10 days before they came to the First Affiliated Hospital of Zhengzhou University. […] If they had been treated with the original approach, it would probably have taken two months before they could be discharged from hospital.
Case 3: had past positive HBsAg for 8 years, without regular treatment or periodic reexamination of relevant indicators. […] They took orally some “stomach medicine” (specific medicine not known) with poor effect. After the aforesaid symptoms aggravated for half a month, with urine turning as yellow as strong tea water, they were admitted to the First Affiliated Hospital of Zhengzhou University on Jan. 21, 2015. […] In merely 12 days, the patient achieved decrease of transaminase by dozens of times, relief from the critical condition, alleviated hepatocyte inflammatory responses and a favorable condition for liver cells, and greatly shortened length of hospitalization.
Case 4: […] They felt abdominal distension and nausea, accompanied with hydroncus in lower limbs, when they got tired half a month ago. For further treatment, they were admitted to the First Affiliated Hospital of Zhengzhou University on Jan. 13, 2015. Color ultrasound examination of abdomen detected diffuse changes of echo patterns of liver, cholecystolithiasis and cholecystitis. […] The patient's liver enzyme decreased to normal level after a short period, meeting the requirements for a surgical operation. Following the operation, their abdominal pain disappeared, with liver enzyme back to normal level and improved appetite. Their quality of life improves now without any discomfort.
Case 5: had past positive HBsAg for over 10 years, with HBsAg (+), HBeAg (+) and HBcAb (+), and had atrial fibrillation over 5 years, during which they orally took traditional Chinese medicine intermittently, but without regular treatment. They complained of feebleness, nausea, dry mouth and bitter taste, and anorexia for 6 days, and was hospitalized on Jan. 31, 2015. After admission, they had ALT 1881 u/L, AST 699 u/L, and prothrombin time activity (PTA) at 26%. The patient was extremely weak, in very poor spirits, with very poor appetite. A notice of critical illness diagnosis was given. […] The patient achieved a rapid decrease of transaminase and obvious improvement of liver synthesis function, and was safe from the critical condition. They continued to take the medicine till maturity of the treatment course, to improve the hepatocyte microcirculation and excretion of bilirubin. The patient soon recovered and left hospital.

[3] = in vivo; listed as trimetazidine, dihydrochloride; cited from earlier work
liver failure patients [4] = assay: Clinical trial involving 165 cases of liver failure, TMZ vs traditional therapeutic approach (general treatment); format: in vivo, human
[5] = Case 5, one week plus another 5 days of TMZ

Diisopropylamine Dichloroacetate [DCA]
ALT decrease (k, mathematical model analysis) (liver failure patients [1]): 67.325 | AST decrease (k, mathematical model analysis) (liver failure patients [1]): 142.77

COc1ccc(CN2CCNCC2)c(OC)c1OC.Cl.Cl [TMZ, 1-[2,3,4-trimethoxybenzyl] piperazine dihydrochloride]
ALT decrease (k, mathematical model analysis) (liver failure patients [1]): 259.4 | AST decrease (k, mathematical model analysis) (liver failure patients [1]): 362.53 | AST ([2]; Case 1, 12 days after start of TMZ, on admission AST 303 u/L): 68 u/L | ALT ([2]; Case 1, HBsAg positive, 12 days after start of TMZ 1 tablet 3 times a day, on admission ALT 270 u/L): 41 u/L | total bilirubin ([2]; Case 2, oral TMZ for 20 days, on admission 401.9 umol/L): 130 µmol/L | AST ([2]; Case 2, oral TMZ for 20 days, on admission AST 484 u/L): 52 u/L | ALT ([2]; Case 2, serious drug-induced hepatitis, oral TMZ for 20 days, on admission ALT 983 u/L): 95 u/L | ALT ([2]; Case 3, acute-on-chronic liver failure, admitted Jan. 21, 2015, reexamination February 5, on admission ALT 1386 u/L): 76 u/L | prothrombin time activity (PTA) ([2]; Case 3, reexamination February 5, on admission 27.4%): 57.8% | AST ([2]; Case 3, reexamination February 5, on admission AST 1368 u/L): 85 u/L | ALT ([2]; Case 4, HBsAg positive, oral TMZ for 13 days, on admission ALT 599 u/L): 66 u/L | AST ([2]; Case 4, oral TMZ for 13 days, on admission AST 663 u/L): 79 u/L | prothrombin time activity (PTA) ([2]; Case 5, one week after start of oral TMZ, after admission 26%): 48% | ALT ([2]; Case 5, one week after start of oral TMZ, after admission ALT 1881 u/L): 255 u/L | AST ([2]; Case 5, one week after start of oral TMZ, after admission AST 699 u/L): 77 u/L | ALT [2, 5]: 117 u/L | AST [2, 5]: 226 u/L | prothrombin time activity (PTA) [2, 5]: 50% | elimination half-life [3]: approximately 6 hours | 30-day immortality rate (liver failure patients [4]; TMZ 20 mg tablet orally 3 times a day, 4 weeks, traditional therapeutic approach 44%, FIG. 5): approximately 18% | 90-day immortality rate (liver failure patients [4]; TMZ 20 mg tablet orally 3 times a day, 4 weeks, traditional therapeutic approach 68%, FIG. 5): 35% | decrease rate of alanine aminotransferase and aspartate transaminase (liver failure patients [4]; laboratory test indicators, FIG. 3): significantly raise the decrease rate | serious adverse reaction during the clinical trial (liver failure patients [4]; liver failure patients): no serious adverse reaction occurred | hepatic glucose metabolism (PET-CT) (liver failure patients [4]; one liver failure patient, before vs after taking TMZ, FIG. 4): remarkably improved
